Earlier results on 1 molecule are cited in US20020035131A1, “Regimen and kit for amelioration of premature ejaculation” (Pentech Pharmaceuticals, Inc., priority 1999, published 2002).

The data set concerns patients treated for premature ejaculation. Particulars: cited from earlier work.

The structures appear in SMILES notation.

For `CN[C@H]1CC[C@@H](c2ccc(Cl)c(Cl)c2)c2ccccc21` [sertraline], for the setting “25 mg sertraline/day, study group of 46”, the “patients who managed to ejaculate during sexual intercourse” value is reported as “all patients”. Where the note is “50 mg sertraline/day, 4/46”, the “men unable to ejaculate after prolonged sexual intercourse” value is on record as 9%. Besides, under “100 mg sertraline/day, 10/46”, the “patients unable to ejaculate after prolonged sexual intercourse” value is on record as 22%.
